Results taken from patent US10526276B2, “Dream neuronal calcium sensor-modulating compounds, and therapeutic uses thereof” (CONSEJO SUPERIOR DE INVESTIGACIONES CIENTÍFICAS, priority 2014, dated 2020).

Tests used:
[1] = system: STHdh^Q111/Q111 cells infected with lentivirus expressing the complete human DREAM protein (Q111DR); experiment: Neuroprotection against H2O2-mediated necrosis (LDH release) in Q111DR cells; format: cell-based, mouse; details: compound 100 nM; H2O2 0.66 mM; FIG. 2
Method: FIG. 2. […] RP: Repaniglida.
(§1) In an immortalized cell line of mouse striatum infected with lentivirus STHdh^Q111/Q111 expressing the complete human DREAM protein (Q111DR), the neuroprotective effect of the compounds was tested against necrosis mediated by H2O2 and apoptosis mediated by staurosporine.

[2] = molecular target: T1, Kv4.3 channels (Homo sapiens, UniProt Q9UK17); experiment: Patch-clamp in CHO cells transiently transfected with Kv4.3 only; format: cell-based; details: 100 nM, FIG. 1B
T1 construct: expressed in transfected cells; host or cells: CHO cells, transient transfection
T1 sequence (Q9UK17 1-655): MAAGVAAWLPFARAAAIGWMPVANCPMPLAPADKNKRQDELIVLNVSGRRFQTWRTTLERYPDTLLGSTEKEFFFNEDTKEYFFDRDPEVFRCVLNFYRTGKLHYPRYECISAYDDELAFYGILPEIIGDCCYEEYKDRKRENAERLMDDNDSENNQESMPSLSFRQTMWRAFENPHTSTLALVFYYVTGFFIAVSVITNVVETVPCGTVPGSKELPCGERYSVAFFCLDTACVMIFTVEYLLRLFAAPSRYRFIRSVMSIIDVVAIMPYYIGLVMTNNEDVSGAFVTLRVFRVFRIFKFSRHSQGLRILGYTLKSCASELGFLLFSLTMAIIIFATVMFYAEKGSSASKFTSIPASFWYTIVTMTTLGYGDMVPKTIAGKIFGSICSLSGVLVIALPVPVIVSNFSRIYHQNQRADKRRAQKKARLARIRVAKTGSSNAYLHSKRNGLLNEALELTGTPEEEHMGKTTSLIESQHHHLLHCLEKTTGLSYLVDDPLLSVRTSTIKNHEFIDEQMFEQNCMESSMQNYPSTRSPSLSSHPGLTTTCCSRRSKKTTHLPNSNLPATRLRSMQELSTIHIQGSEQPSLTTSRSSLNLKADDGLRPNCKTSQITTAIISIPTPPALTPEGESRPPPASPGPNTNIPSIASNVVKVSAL
Excerpt: (§2) The new compounds synthesised according to this invention have been evaluated in vitro in voltage-binding assays in CHO cells transiently transfected with cDNA encoding Kv4.3 only or Kv4.3 in the presence of DREAM (Kv4.3+DREAM) using the patch-clamp technique. […] For some of the compounds evaluated, this effect is selective and is only observed in the presence of the DREAM channel modulator.

[3] = molecular target: T2, Kv4.3+DREAM channels (Homo sapiens, UniProt Q9UK17+Q9Y2W7); experiment: Patch-clamp in CHO cells transiently transfected with Kv4.3 in the presence of DREAM; format: cell-based; details: 100 nM; for inhibitory effect of the Kv4.3+DREAM current (% decrease of the amount of charge passing through the membrane): CHO cells, FIG. 1B
T2 construct: expressed in transfected cells; host or cells: CHO cells, transient transfection
T2 sequence (Q9Y2W7 1-256): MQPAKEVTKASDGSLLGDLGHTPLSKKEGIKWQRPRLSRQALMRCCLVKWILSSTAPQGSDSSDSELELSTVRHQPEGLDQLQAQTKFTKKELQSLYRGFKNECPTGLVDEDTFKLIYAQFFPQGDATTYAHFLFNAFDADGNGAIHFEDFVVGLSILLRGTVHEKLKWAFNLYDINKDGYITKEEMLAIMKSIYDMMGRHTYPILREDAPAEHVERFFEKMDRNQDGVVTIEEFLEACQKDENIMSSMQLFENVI
T2 sequence (Q9UK17 1-655): T1 sequence (Q9UK17 1-655)
Excerpt: as §2

[4] = system: STHdh^Q111/Q111 cells infected with lentivirus expressing the complete human DREAM protein (Q111DR); experiment: Neuroprotection against staurosporine-mediated apoptosis (caspase-3 activation) in Q111DR cells; format: cell-based, mouse; details: compound 100 nM, 1 h pre-incubation; staurosporine 1 μM for 5 h; compared with repaglinide (RP); FIG. 3
Method: FIG. 3. Analysis of the neuroprotective effect of compounds 9, 16, 22, 23 and 62 (100 nM) against the activation of caspase-3 mediated by staurosporine in ^Q111/Q111 cells infected with lentivirus expressing the complete human DREAM protein. The caspase-3 activity was measured after 1 h of pre-incubation of the compounds (100 nM) and subsequent exposure for 5 h of staurosporine at 1 μM. RP: Repaniglida.
as §1

SMILES: COC(=O)[C@@H](Cc1cn(C(c2ccccc2)(c2ccccc2)c2ccccc2)cn1)NC(=O)Cc1ccc(Cl)c(Cl)c1 [Compound 62, (2R)-2-[2-(3,4-dichlorophenyl)acetylamino]-3-(1-trityl-1H-imidazol-4-yl)methyl propanoate]
- release of LDH (lactate dehydrogenase) mediated by H2O2, neuroprotective effect [1]: lowest LDH release
- inhibitory effect of the Kv4.3 current in the absence of DREAM (% decrease of the amount of charge passing through the membrane) [2]: similarly inhibits the current generated by the Kv4.3 channels
- inhibitory effect of the Kv4.3+DREAM current (% decrease of the amount of charge passing through the membrane) [3]: similarly inhibits the current generated by the Kv4.3 channels to that of the Kv4.3 channels in the presence of DREAM
- selectivity of Kv4.3 current inhibition for the presence of DREAM ([3]; Kv4.3+DREAM versus Kv4.3 only): has no selectivity
- activation of caspase-3 mediated by staurosporine, neuroprotective effect [4]: lowest activation of caspase-3

SMILES: O=C(Cc1ccc(Cl)c(Cl)c1)Nc1ccc(-c2ccccc2)cc1C(=O)O [Compound 42, 2-[2-(3,4-dichlorophenyl)acetylamino]-5-phenylbenzoic acid]
- inhibitory effect of the Kv4.3 current in the absence of DREAM (% decrease of the amount of charge passing through the membrane) [2]: only inhibit the Kv4.3 current in the presence of DREAM
- inhibitory effect of the Kv4.3+DREAM current (% decrease of the amount of charge passing through the membrane) [3]: only inhibit the Kv4.3 current in the presence of DREAM

SMILES: CCCCc1ccc(-c2ccc(C(=O)O)c(NC(=O)Cc3ccc(Cl)c(Cl)c3)c2)cc1 [Compound 35, 2-[2-(3,4-dichlorophenyl)acetylamino]-4-(4′-n-butylphenyl)benzoic acid]
- inhibitory effect of the Kv4.3 current in the absence of DREAM (% decrease of the amount of charge passing through the membrane) [2]: only inhibit the Kv4.3 current in the presence of DREAM
- inhibitory effect of the Kv4.3+DREAM current (% decrease of the amount of charge passing through the membrane) [3]: only inhibit the Kv4.3 current in the presence of DREAM
